The values below come from patent US20260055143A1, “HIGH AFFINITY VARIANTS OF SH2 DOMAINS” (Axoiya Inc., priority 2023, published 2026).

This assay concerns PPPT{pTyr}TEVDP. As to the kind of experiment: Competitive ELISA, Ptn11_C variants. Format: binding. The protocol:
Competitive and non-competitive phage ELISAs were performed as previously described with minor modifications to the protocol. Peptide sequences used for these analyses can be found in Table 4.
Streptavidin (50 ng/well in TBS (50 mM Tris-HCl pH 8.0, 150 mM NaCl) was coated onto MAXISORP plates (Thermo Scientific). Phage binding was detected using HRP conjugated anti-M13 secondary antibody (1/2000 dilution, GE Healthcare) in TBS buffer containing 0.05% Tween-20 (TBT buffer). Phage binding was detected using the 3,3′,5,5′-tetramethylbenzidine (TMB) (Thermo Fisher Scientific) chromogenic substrate. Plates were read using a PowerWave XS microplate reader (BioTek).
Competitive phage-ELISAs were used to determine binding affinity of SH2 superbinders for their cognate target. ELISAs were performed as previously described, biotinylated and phosphorylated peptides were immobilized on plates at the concentration of 0.2 μM, and available binding sites on streptavidin were blocked by adding 25 μl/well of 50 μM D-biotin in TBS. […] Data were plotted using Prism 6 software (GraphPad Software Inc) and affinity of SH2 domains was inferred from determination of the half maximal inhibition concentration (IC50).
Peptides listed in Table 5 were used to assay for binding affinity of each corresponding SH2 domain.
(In general: ELISA stands for enzyme-linked immunosorbent assay.)

On to “Ptn11_C^wt: wild-type PTN11_C SH2 domain, SEQ ID 57”, for which, under “with either the sSrc or sFes graft”, the change in affinity result is recorded as “no improvement in affinity”. For the same substance, under “αA-2-Arg mutation alone”, the change in binding result is “not sufficient to enhance the binding”.
